# Experimental data published in the supplement of paper PMC10307832.
# How the values were obtained:
# Assay in all cases: relative viability (nuclei count vs DMSO), 5 days (fraction); higher = more cells survive
# [1] = compound: Cc1ccccc1C(C(=O)NC1CCCCC1)N(C(=O)Cn1ccnc1C)c1cccc(F)c1 [IDH-C35] + CS(=O)(=O)CCNCc1ccc(-c2ccc3ncnc(Nc4ccc(OCc5cccc(F)c5)c(Cl)c4)c3c2)o1 [Lapatinib] (partner 2 µM)
# Outline: (§1)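 Relative viability was taken as the ratio of nuclei in treated wells to nuclei in vehicle wells. Lung cancer cell lines in 1536-well plates received compounds by pin tool one day after seeding, either one drug alone or a fixed anchor-drug dose plus five library-drug doses (not always all listed) in √10 steps. Nuclei were counted on 4× images after 5 days of treatment, and values are medians of duplicate plates.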
# [2] = compound: CC1=C(C(=NN1)C)CC2=C(C3=C(S2)N(C(=O)N(C3=O)C)CC(C)C)C(=O)N4C[C@@H](CO4)O + Nc1ncn([C@H]2C[C@H](O)[C@@H](CO)O2)c(=O)n1 [Decitabine] (partner 2 µM)
# Outline: as §1
# [3] = compound: CC1=C(C(=NN1)C)CC2=C(C3=C(S2)N(C(=O)N(C3=O)C)CC(C)C)C(=O)N4C[C@@H](CO4)O + O=C(CCCCCCC(=O)Nc1ccccc1)NO [Vorinostat] (partner 1 µM)
# Outline: as §1
# [4] = compound: Cc1ccccc1C(C(=O)NC1CCCCC1)N(C(=O)Cn1ccnc1C)c1cccc(F)c1 [IDH-C35] + Cc1nc(NC(=O)N2CCC[C@H]2C(N)=O)sc1-c1ccnc(C(C)(C)C(F)(F)F)c1 [Alpelisib] (partner 2 µM)
# Outline: as §1
Cell Line,relative viability ([1]; first compound 0.08 µM),relative viability ([1]; first compound 0.253 µM),relative viability ([1]; first compound 0.8 µM),relative viability ([1]; first compound 2.53 µM),relative viability ([1]; first compound 8 µM),relative viability ([2]; first compound 0.0025 µM),relative viability ([2]; first compound 0.007906 µM),relative viability ([2]; first compound 0.025 µM),relative viability ([2]; first compound 0.07906 µM),relative viability ([2]; first compound 0.25 µM),relative viability ([3]; first compound 0.0025 µM),relative viability ([3]; first compound 0.007906 µM),relative viability ([3]; first compound 0.025 µM),relative viability ([3]; first compound 0.07906 µM),relative viability ([3]; first compound 0.25 µM),relative viability ([4]; first compound 0.08 µM),relative viability ([4]; first compound 0.253 µM),relative viability ([4]; first compound 0.8 µM),relative viability ([4]; first compound 2.53 µM),relative viability ([4]; first compound 8 µM)
NCI-H2087,1.04,1.06,0.867,1.07,0.834,0.315,0.28,0.274,0.295,0.248,0.841,0.581,0.578,0.462,0.875,1.11,1.13,1.05,1.09,0.874
NCI-H2126,0.77,0.77,0.705,0.777,0.739,0.575,0.561,0.564,0.512,0.603,0.919,0.894,0.844,0.84,0.674,0.766,0.758,0.745,0.737,0.752
NCI-H2170,0.254,0.259,0.28,0.274,0.272,0.495,0.514,0.462,0.441,0.481,0.82,0.792,0.779,0.749,0.864,0.798,0.776,0.832,0.795,0.788
NCI-H2347,0.99,0.969,0.914,0.902,0.804,0.638,0.649,0.608,0.56,0.662,0.588,0.624,0.544,0.559,0.431,1.14,1.12,1.03,1.16,1.03
NCI-H2405,1.1,1.2,1.09,,0.957,0.686,0.746,0.752,0.738,0.739,1.13,1.07,0.849,0.96,0.888,0.927,0.815,0.777,,0.736
NCI-H3122,1.06,0.951,1.04,1,1.03,0.393,0.454,0.47,0.448,0.389,1.03,1.12,1.1,0.731,0.918,0.904,0.739,0.729,0.78,0.849
PC-3 [JPC-3],0.431,0.486,0.444,0.44,0.492,0.843,0.787,0.9,0.843,0.996,0.853,0.898,0.741,0.972,0.797,1.08,1.04,0.988,1.08,1.04
PC-14,0.361,0.304,0.316,0.363,0.423,0.223,0.27,0.215,0.199,0.275,0.824,0.885,0.692,0.824,0.982,1.02,0.956,0.959,0.927,0.758
RERF-LC-KJ,0.939,0.856,0.91,0.802,0.773,0.852,0.739,0.766,0.656,0.678,0.738,0.814,0.66,0.696,0.767,0.824,0.827,0.853,0.73,0.886
SK-LU-1,0.918,0.856,0.871,0.976,0.82,0.524,0.475,0.448,0.561,0.618,0.744,0.528,0.571,0.611,0.611,0.993,0.918,1.29,1.11,0.934
SK-MES-1,0.435,0.49,0.446,0.481,0.413,0.428,0.384,0.394,0.381,0.449,1.19,1.23,1.1,1.05,1.16,1.02,1.01,0.873,0.887,0.833
SW 1573,1.2,1.26,1.09,1.05,1.09,0.529,0.519,0.634,0.534,0.504,0.795,0.714,0.792,0.679,0.782,0.745,0.699,0.685,0.692,0.754
